The values below come from US20170189372A1, “USE OF SUBSTITUTED CHROMAN COMPOUNDS” (INSTYTUT BIOLOGII MEDYCZNEJ, priority 2014, published 2017).

The subject of test [1] is reporter cell line for IL-2 (EL-4 cells). The experiment in a line: FCC primary screening with IL-2 reporter cells. To be noted: relative viability×(relative fluorescence−100); PMA and ionomycin activated, compound 0.4 μg/ml, 18 h. Type of test: cell-based, mouse. On the procedure: (§1) Development of reporter cell lines was described previously (Ulleras, E., D. Trzaska, et al. (2005); “Development of the “Cell Chip”: a new in vitro alternative technique for immunotoxicity testing”, Toxicology 206(2): 245-56). Briefly, EL-4 cells were stably transfected with transgene consisting of promoter regions from mouse β-actin, interleukin-2 (IL-2), interleukin-4 (IL-4), interferon-γ (IFN-γ), and interleukin-10 (IL-10) and ORF for EGFP. Reporter cells were cultured at density 5×10^5-1×10^6 cells/ml in a humidified atmosphere with 5% CO2 at 37° C. in RPMI 1640 with Glutamax supplemented with 20% FCS and 0.5 μg/ml G418.
When applicable, cells and reagents handling was performed by JANUS Automated Workstation (PerkinElmer, Waltham, Mass., USA). Cells were seeded at a density of 5×10^4 per well in 96-well plates. In the primary screening reporter cells for IL-2 activated with PMA (50 ng/ml) and ionomycin (1 μM) were seeded in a 96-well plate and incubated with compounds from the chemical library in a total volume of 100 μL at 37° C. in a humidified atmosphere with 5% CO2 for 18 h. Concentration of compounds was 0.4 μg/ml. The final DMSO concentration was 0.2%, DMSO is not cytotoxic towards EL-4 reporter cells at this concentration. Control samples consisted of cells in medium with 0.2% DMSO with PMA (50 ng/ml) and ionomycin (1 μM). Following incubation cells were analyzed by flow cytometry. Viability was assessed in parallel to the level of EGFP-mediated fluorescence.
Selection of compounds was based on FCC parameters calculated using the following formula:
FCC parameter=relative viability×(relative fluorescence−100)
Compounds after primary screening were considered to be hits when FCC parameter calculated after primary screening was ≦−5000. After secondary screening area under the curve (A) of FCC parameter versus relative concentration was calculated (maximum concentration used, i.e. 50 μg/ml, was assumed to be 1).

Test [2] deals with IL-2 production by Jurkat cells. Briefly: ELISA for IL-2 in Jurkat cells. Format: cell-based. The settings on record: Jurkat cells, PMA and ionomycin, 24 hours; for inhibition at 10 µg/mL / inhibition at 50 µg/mL: Homo sapiens. On the procedure: Jurkat cells were seeded in 48-well plates at a concentration of 1 million/ml. Cells activated with PMA (50 ng/ml) and ionomycin (1 uM) or resting were incubated with 50 selected flavonoids in a concentration of 10 μg/ml and 50 μg/ml for 24 hours in a humidified atmosphere with 5% CO 2 at 37° C. As a control, the respective cells in the medium or in a medium with PMA and ionomycin were employed. After incubation, cells were centrifuged (8 minutes, 1300 rpm), and the cell-free supernatants were stored at −20° C. until measurements. IL-2 was assessed using a commercially available ELISA kits according to the manufacturer's instructions. Each experiment was repeated 3 times.
FCC assay and ELISA assay were repeated three times. Relative data were presented as the means±SEM. […] Statistical significance of differences observed in both assays was tested with ANOVA followed by post hoc Dunnett test using GraphPad software (La Jolla, Calif., USA). In statistical analysis non-relative data were used
A general note: An ELISA detects its analyte on a solid surface through an enzyme-linked reagent.

The subject of test [3] is reporter cell line for interleukin-2 (EL-4 cells). The experiment in a line: FCC test, expanded version, IL-2 reporter cell line. Format: cell-based, mouse. The settings on record: IL-2 reporter line; PMA and ionomycin; 1.56 to 50 μg/ml, 50 μg/ml assumed to be 1. On the procedure:
as §1
(§2) Compounds after primary screening were considered to be hits when FCC parameter calculated after primary screening was ≦−5000. After secondary screening area under the curve (A) of FCC parameter versus relative concentration was calculated (maximum concentration used, i.e. 50 μg/ml, was assumed to be 1). […]
(§3) Flavonoids selected after preliminary screening were undergoing FCC testing using 5 reporter cell lines: for β-actin, interleukin-2 (IL-2), interleukin-4 (IL-4), interferon-γ (IFN-γ) and interleukin-10 (IL-10). The tested concentrations were in the range from 1.56 to 50 μg/ml.
(§4) Using flow cytometry mean fluorescence intensity (columns, left Y axis) and cell viability (dots, the right Y-axis) was determined for all the experimental points and normalized relative to the control—cells incubated with medium with PMA and ionomycin. The data is the mean of the three experiments ±SEM. The statistical significance of differences between means were determined: * p<0.05, ** p<0.01, *** p<0.001 versus control. Values above the graph represent the area under the curve showing the relationship of the FCC parameter and the relative compound concentration.

Test [4] relates to reporter cell line for β-actin (EL-4 cells). The experiment in a line: FCC test, expanded version, β-actin reporter cell line. To be noted: PMA and ionomycin, 1.56 to 50 μg/ml, 50 μg/ml assumed to be 1. Type of test: cell-based, mouse. On the procedure: as §1, §2, §3, §4
In test [5] the test system is reporter cell line for interferon-γ (EL-4 cells). The experiment in a line: FCC test, expanded version, IFN-γ reporter cell line. Type of test: cell-based, mouse. The settings on record: PMA and ionomycin, 1.56 to 50 μg/ml, 50 μg/ml assumed to be 1. On the procedure:
as §1, §2, §3, §4

The test system of test [6] is reporter cell line for interleukin-10 (EL-4 cells). Briefly: FCC test, expanded version, IL-10 reporter cell line. Format: cell-based, mouse. The settings on record: IL-10 reporter line; PMA and ionomycin; 1.56 to 50 μg/ml, 50 μg/ml assumed to be 1. As for the experimental part: as §1, §2, §3, §4
For test [7], the system named is reporter cell line for interleukin-4 (EL-4 cells). The experiment in a line: FCC test, expanded version, IL-4 reporter cell line. Type of test: cell-based, mouse. To be noted: IL-4 reporter line; PMA and ionomycin; 1.56 to 50 μg/ml, 50 μg/ml assumed to be 1. On the procedure:
as §1, §2, §3, §4

In general, inhibition refers to the relative decrease from the control value, in per cent.

`COc1cccc2c1C(=O)CC(c1ccccc1)O2` (stereo not shown) [Compound 9, 5-methoxy-2-phenylchroman-4-one]: the “FCC parameter (IL-2 screening)” value in test [1] is reported as −5636. The same compound came in with an inhibition at 10 µg/mL in test [2] (10 μg/ml) of 43%. The same compound displayed an inhibition at 50 µg/mL in test [2] (50 μg/ml) of 92%. For the same compound, the “The area under the curve showing the relationship between the FCC parameter and compound concentration, IL-2” value (“The area … IL-2” for short) in test [3] was −3872. For the same compound, the “The area under the curve showing the relationship between the FCC parameter and compound concentration, AKT” value (“The area … AKT” below) in test [4] was 3861. Besides, the “The area under the curve showing the relationship between the FCC parameter and compound concentration, IFN” value (from here on “The area … IFN”) in test [5] is reported as −4745. The “The area under the curve showing the relationship between the FCC parameter and compound concentration, IL-10” value (shortened to “The area … IL-10”) in test [6] is on record as −1472. In addition, in test [7], the “The area under the curve showing the relationship between the FCC parameter and compound concentration, IL-4” value (from here on “The area … IL-4”) is 675.

`O=C1CC(c2ccccc2O)Oc2ccc(O)cc21` (stereo not shown) [Compound 6, 6-hydroxy-2-(2-hydroxyphenyl)chroman-4-one]: the “FCC parameter (IL-2 screening)” value in test [1] is recorded as −5169. In test [2] (10 μg/ml), this compound gave an inhibition at 10 µg/mL of 58%. The inhibition at 50 µg/mL in test [2] (50 μg/ml) was found to be 100%. Moreover, the “The area … IL-2” value in test [3] was −2227. Also, the “The area … AKT” value in test [4] worked out at 3622. Besides, the “The area … IFN” value in test [5] is reported as −2999. Also, the “The area … IL-10” value in test [6] was −179. In test [7], the “The area … IL-4” value is recorded as 367.

With `CC(=O)Oc1ccc(/C=C/C(=O)CC2OC(Oc3cc(OC(C)=O)c4c(c3)O[C@@H](c3ccc(OC(C)=O)cc3)CC4=O)C(OC(C)=O)C(OC(C)=O)C2OC(C)=O)cc1` (stereo partly drawn) [Compound 3, 4-(7-{6-[(3E)-4-(4-acetyloxyphenyl)-2-oxobut-3-enyl]-3,4,5-triacetyloxy(2H-3,4,5,6-tetrahydropyran-2-yloxy)}(2R)-5-acetyloxy-4-oxochroman-2-yl)phenyl acetate], the “FCC parameter (IL-2 screening)” value in test [1] is −5095. The “Inhibition of IL-2 production (ELISA)” value in test [2] (10 μg/ml) is recorded as 64%; in test [2] (50 μg/ml), 68%. Also, the “The area … IL-2” value in test [3] is −4581. The “The area … AKT” value in test [4] was found to be 945. In test [5], the “The area … IFN” value is −3801. Also, in test [6], the “The area … IL-10” value is −1509. Besides, in test [7], the “The area … IL-4” value is −308.

For the compound `COc1cc(OC)c2c(c1)OC(c1ccccc1)CC2=O` (stereo not shown) [Compound 8, 5,7-dimethoxy-2-phenylchroman-4-one], the “FCC parameter (IL-2 screening)” value in test [1] is −5788. In addition, 10 µg/mL produced 80% inhibition in test [2] (10 μg/ml). At 50 µg/mL the inhibition in test [2] (50 μg/ml) was 100%. Besides, the “The area … IL-2” value in test [3] is −2590. In addition, in test [4], the “The area … AKT” value is 3973. Further, the “The area … IFN” value in test [5] is −4396. Moreover, the “The area … IL-10” value in test [6] was −628. Also, in test [7], the “The area … IL-4” value was found to be 2380.

On to `COc1ccc2c(c1)OC(c1cccc(OC)c1OC)CC2=O` (stereo not shown) [Compound 7, 2-(2,3-dimethoxyphenyl)-7-methoxychroman-4-one], for which the “FCC parameter (IL-2 screening)” value in test [1] was −6178. The inhibition at 10 µg/mL in test [2] (10 μg/ml) was 67%. Besides, testing at 50 µg/mL in test [2] (50 μg/ml) gave an inhibition of 92%. In addition, the “The area … IL-2” value in test [3] was −4104. Further, in test [4], the “The area … AKT” value is listed as −1357. The “The area … IFN” value in test [5] is given as −5873. The “The area … IL-10” value in test [6] is on record as −2889. The “The area … IL-4” value in test [7] is recorded as −1865.

`CC1(C)CC2(CC(c3ccccc3)Oc3cc(O)ccc32)NC(=S)N1` (stereo not shown) [Compound 2, Spiro[4H-1-benzopyran-4,4′(1′H)-pyrimidine]-2′(3′H)-thione, 2,3,5′,6′-tetrahydro-7-hydroxy-6′,6′-dimethyl-2-phenyl]: in test [1], the “FCC parameter (IL-2 screening)” value was −5484. Further, the “Inhibition of IL-2 production (ELISA)” value amounted to 35% in test [2] (10 μg/ml) and 91% in test [2] (50 μg/ml). The “The area … IL-2” value in test [3] is reported as −2394. The “The area … AKT” value in test [4] is listed as −1120. The “The area … IFN” value in test [5] is reported as −3977. In addition, the “The area … IL-10” value in test [6] was −2585. For the same compound, the “The area … IL-4” value in test [7] came to 261.

Take `COc1cccc(C2CC(=O)c3ccccc3O2)c1OC` (stereo not shown) [Compound 10, 2-(2,3-dimethoxyphenyl)chroman-4-one]: the “FCC parameter (IL-2 screening)” value in test [1] is listed as −6685. Besides, at 10 µg/mL the inhibition in test [2] (10 μg/ml) was 32%. This compound also yielded an inhibition at 50 µg/mL in test [2] (50 μg/ml) of 97%. Besides, the “The area … IL-2” value in test [3] is given as −2244. The “The area … AKT” value in test [4] was 118. The “The area … IFN” value in test [5] is recorded as −3142. Further, in test [6], the “The area … IL-10” value is −1336. For the same compound, the “The area … IL-4” value in test [7] was −946.

`CC(=O)Oc1ccc2c(c1)OC(c1ccccc1)CC21CC(C)(C)NC(=S)N1` (stereo not shown) [Compound 4, 7-acetoksy-2,3,5′,6′-tetrahydro-6′,6′-dimetylo-2-fenylo-spiro[4H-1-benzopirano-4,4′(1′H)-pirymidyno]-2′(3′H)-tion]: the “FCC parameter (IL-2 screening)” value in test [1] is recorded as −5692. In addition, the “Inhibition of IL-2 production (ELISA)” value is on record as 27% in test [2] (10 μg/ml) and 44% in test [2] (50 μg/ml). Besides, in test [3], the “The area … IL-2” value is listed as −1081. In test [4], the “The area … AKT” value is on record as −104. Besides, the “The area … IFN” value in test [5] is given as −3521. Also, the “The area … IL-10” value in test [6] is −1928. In addition, the “The area … IL-4” value in test [7] was 988.
